The subject of this experiment is LpxC enzyme. Description: LpxC enzyme assay (RapidFire high-throughput mass spectrometry). It counts as biochemical. On the procedure: The standard LpxC assay consists of 0.2 nM LpxC enzyme, 1.0 μM UDP-3-O—(R-3-hydroxymyristoyl)-N-acetylglucosamine, and test compound, in assay buffer and 2% DMSO. Assay buffer is comprised of 25 mM HEPES, pH 7.3, 150 mM NaCl, 2.0 mM DTT, and 0.01% BSA. The enzyme reaction is carried out in a 96-well assay plate, in a final volume of 102 μL. Solutions of test compounds are prepared in 100% DMSO. Reaction additions, in order, are (1) 2.0 μL compound solution, (2) 80 μL of assay buffer, (3) 10 μL of 10 μM UDP-3-O—(R-3-hydroxymyristoyl)-N-acetylglucosamine (in assay buffer) and, (4) 10 μL of LpxC enzyme (20 nM in assay buffer) to initiate the reaction. In positive control reactions, addition (1) has 2.0 μL of 100% DMSO (without compound); these reactions are used as the total signal (TSB) value. Reactions are incubated at room temperature for 60 minutes when 10 μL of 1 N HCl is added to stop the reaction. The plate is shaken by hand for 10 seconds to ensure complete quenching. Assay plates are sealed with foil tape, and stored at −80° C. for 24-48 hr prior to analysis.
The concentrations of substrate and product in the reaction mixtures are determined with BioTrove's proprietary RapidFire™ high-throughput mass spectrometry (HTMS). Assay mixtures are partially purified with reverse phase chromatography, where they are washed with water containing 5 mM ammonium formate and eluted onto the mass spectrometer in 80% acetonitrile, 20% water, and 5 mM ammonium formate. The mass spectrometry peak areas of the substrate and product are measured to determine the concentration of these analytes. The assay signal is the percentage of substrate that is converted to product. Percent inhibition, % I, in test samples is determined from the following equation: […]

[1] abbreviates: concentration 0.10 (unit not given).
Setting [2] is: concentration 0.20 (unit not given).
Where [3] appears, read: concentration 0.39 (unit not given).
The mark [4] stands for this setting: concentration 0.78 (unit not given).
Setting [5] is: concentration 1.56 (unit not given).
[6] abbreviates: concentration 3.13 (unit not given).
[7] abbreviates: concentration 6.25 (unit not given).
[8] abbreviates: concentration 12.50 (unit not given).
[9] abbreviates: concentration 25 (unit not given).
[10] abbreviates: concentration 50 (unit not given).

In the case of `O=C([C@H](O)[C@@H](O)C(=O)N1CCC(c2ccc3ccccc3c2)CC1)N1CCCC1` [Compound 70], the “LpxC enzyme assay rating (% inhibition at indicated concentrations)” value is, setting by setting: under setting [1], “C (less than 10% inhibition)”; under setting [2], “C (less than 10% inhibition)”; under setting [3], “C (less than 10% inhibition)”; under setting [4], “B (10-30% inhibition)”; under setting [5], “C (less than 10% inhibition)”; under setting [6], “C (less than 10% inhibition)”. For the same compound, the “LpxC enzyme assay rating (% inhibition at indicated concentrations)” value reads like this: under setting [7], “C (less than 10% inhibition)”; under setting [8], “C (less than 10% inhibition)”; under setting [9], “B (10-30% inhibition)”; under setting [10], “C (less than 10% inhibition)”.

As to `CCC(C)c1ccc(NC(=O)[C@H](O)[C@@H](O)C(=O)N(C)C)cc1` (stereo partly drawn) [Compound 50], the “LpxC enzyme assay rating (% inhibition at indicated concentrations)” value is given as “C (less than 10% inhibition)” under setting [1]; “C (less than 10% inhibition)” under setting [2]; “C (less than 10% inhibition)” under setting [3]; “B (10-30% inhibition)” under setting [4]; “C (less than 10% inhibition)” under setting [5]; “C (less than 10% inhibition)” under setting [6]. The “LpxC enzyme assay rating (% inhibition at indicated concentrations)” value runs as follows: under setting [7], “B (10-30% inhibition)”; under setting [8], “B (10-30% inhibition)”; under setting [9], “C (less than 10% inhibition)”; under setting [10], “B (10-30% inhibition)”.

For `CN(C)C(=O)[C@H](O)[C@@H](O)C(=O)N(C)c1ccccc1C#Cc1ccccc1` [Compound 103], the “LpxC enzyme assay rating (% inhibition at indicated concentrations)” value is, setting by setting: under setting [1], “C (less than 10% inhibition)”; under setting [2], “C (less than 10% inhibition)”; under setting [3], “B (10-30% inhibition)”; under setting [4], “B (10-30% inhibition)”; under setting [5], “B (10-30% inhibition)”; under setting [6], “B (10-30% inhibition)”. The “LpxC enzyme assay rating (% inhibition at indicated concentrations)” value is, setting by setting: under setting [7], “C (less than 10% inhibition)”; under setting [8], “B (10-30% inhibition)”; under setting [9], “C (less than 10% inhibition)”.

As for `O=C(Nc1ccc(-n2cccn2)cc1)[C@H](O)[C@@H](O)C(=O)N1CCCC1` [Compound 75], the “LpxC enzyme assay rating (% inhibition at indicated concentrations)” value is recorded as “C (less than 10% inhibition)” under setting [1]; “C (less than 10% inhibition)” under setting [2]; “C (less than 10% inhibition)” under setting [3]; “B (10-30% inhibition)” under setting [4]; “C (less than 10% inhibition)” under setting [5]; “B (10-30% inhibition)” under setting [6]. The “LpxC enzyme assay rating (% inhibition at indicated concentrations)” value reads like this: under setting [7], “B (10-30% inhibition)”; under setting [8], “C (less than 10% inhibition)”; under setting [9], “C (less than 10% inhibition)”; under setting [10], “B (10-30% inhibition)”.

Source of the values: patent US7553864B2, “Compounds for the treatment of inflammatory disorders and microbial diseases” (Schering Corporation, priority 2005, dated 2009).
